Measured values as given in patent publication US20230011869A1 (Hoffmann-La Roche Inc., priority 2018, published 2023).
Where a name gives a salt, the structure may show the parent alone.

system: Acinetobacter baumannii ATCC17978; experiment: Antimicrobial susceptibility testing: 90% growth inhibitory concentration (IC90) determination, Iso-Sensitest broth; assay type: cell-based; details: 90% growth inhibitory concentration, Acinetobacter baumannii ATCC17978, Iso-Sensitest broth, OD 600 nm over 16 h; read-out: ATCC17978 IC90
Method in brief: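 A. baumannii ATCC17978 grown in Iso-Sensitest broth across 10 compound concentrations at 35±2 °C.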

Row | IC90 [µM] | Compound
1 | 2.8 | Cc1cc(Nc2nccn3c(-c4ccc(OCC#CCN)c(F)c4)cnc23)ccc1C(=O)N1CCC(CNC(=O)OC(C)(C)C)CC1 [Example 274, tert-butyl N-[[1-[4-[[3-[4-(4-aminobut-2-ynoxy)-3-fluorophenyl]imidazo[1,2-a]pyrazin-8-yl]amino]-2-methylbenzoyl]piperidin-4-yl]methyl]carbamate]
2 | 3.8 | COc1ccc(-c2cnc3c(Nc4ccc(C(=O)N5CCC(C(=O)NC(CN(C)C)C(=O)O)CC5)c(C)c4)nccn23)cc1F (stereo not shown) [Example 278, 3-(dimethylamino)-2-[[1-[4-[[3-(3-fluoro-4-methoxyphenyl)imidazo[1,2-a]pyrazin-8-yl]amino]-2-methylbenzoyl]piperidine-4-carbonyl]amino]propanoic acid]
3 | 0.071 | COc1ccc(-c2cnc3c(Nc4ccc(C(=O)N5CCC(C(=O)NCC6(O)CNC6)CC5)c(C)c4)nccn23)c(F)c1F [Example 285, 1-[4-[[3-(2,3-difluoro-4-methoxyphenyl)imidazo[1,2-a]pyrazin-8-yl]amino]-2-methylbenzoyl]-N-[(3-hydroxyazetidin-3-yl)methyl]piperidine-4-carboxamide]
4 | 0.18 | COc1ccc(-c2cnc3c(Nc4ccc(C(=O)N5CCC(C(=O)N6C[C@H](CO)[C@@H](O)[C@H](O)C6)CC5)c(C)c4)nccn23)c(F)c1F [Example 296, [4-[[3-(2,3-difluoro-4-methoxyphenyl)imidazo[1,2-a]pyrazin-8-yl]amino]-2-methylphenyl]-[4-[(3R,4R,5R)-3,4-dihydroxy-5-(hydroxymethyl)piperidine-1-carbonyl]piperidin-1-yl]methanone]
5 | 0.21 | COc1ccc(-c2cnc3c(Nc4ccc(C(=O)N5CCC(C(=O)NC[C@H](O)[C@@H](O)[C@H](O)[C@H](O)CO)CC5)c(C)c4)nccn23)c(F)c1F [Example 300, 1-[4-[[3-(2,3-difluoro-4-methoxyphenyl)imidazo[1,2-a]pyrazin-8-yl]amino]-2-methylbenzoyl]-N-[(2S,3R,4R,5R)-2,3,4,5,6-pentahydroxyhexyl]piperidine-4-carboxamide]
6 | 3.5 | COc1ccc(-c2cnc3c(Nc4ccc(C(=O)N5CCC(C(=O)NCCS(=O)(=O)O)CC5)c(C)c4)nccn23)cc1F [Example 303, 2-[[1-[4-[[3-(3-fluoro-4-methoxyphenyl)imidazo[1,2-a]pyrazin-8-yl]amino]-2-methylbenzoyl]piperidine-4-carbonyl]amino]ethanesulfo-nic acid]
7 | 0.11 | Cc1cc(Nc2nccn3c(-c4ccc(OCC#N)c(F)c4F)cnc23)ccc1C(=O)N1CCC(CCN)CC1 [Example 304, 2-[4-[8-[4-[4-(2-aminoethyl)piperidine-1-carbonyl]-3-methylanilino]imidazo[1,2-a]pyrazin-3-yl]-2,3-difluorophenoxy]acetonitrile]
8 | 0.1 | C#CCOc1ccc(-c2cnc3c(Nc4ccc(C(=O)N5CCC(C(=O)NCCCNC)CC5)c(C)c4)nccn23)c(F)c1F [Example 305, 1-[4-[[3-(2,3-difluoro-4-prop-2-ynoxyphenyl)imidazo[1,2-a]pyrazin-8-yl]amino]-2-methylbenzoyl]-N-[3-(methylamino)propyl]piperi-dine-4-carboxamide]
9 | 0.097 | CNCC(=O)N1CCN(C(=O)c2ccc(Nc3nccn4c(-c5ccc(OC)c(F)c5Cl)cnc34)cc2C)CC1 [Example 307, 1-[4-[4-[[3-(2-chloro-3-fluoro-4-methoxyphenyl)imidazo[1,2-a]pyrazin-8-yl]amino]-2-methylbenzoyl]piperazin-1-yl]-2-(methylamino)ethanone; hy-drochloride]
10 | 0.11 | CNCC(=O)N1CCN(C(=O)c2ccc(Nc3nccn4c(-c5ccc(OC)c(F)c5F)cnc34)cc2C)CC1 [Example 308, 1-[4-[4-[[3-(2,3-difluoro-4-methoxyphenyl)imidazo[1,2-a]pyrazin-8-yl]amino]-2-methylbenzoyl]piperazin-1-yl]-2-(methylamino)ethanone; hy-drochloride]

same assay, conditions: Acinetobacter baumannii, ATCC17978, 16 h, read-out: ATCC17978 IC90, 90% growth inhibitory concentration, Acinetobacter baumannii ATCC17978, Iso-Sensitest broth, OD 600 nm over 16 h

Row | Compound | IC90 [µM]
11 | Cc1cc(Nc2nccn3c(-c4ccc(OC(F)F)cc4)cnc23)ccc1C(=O)N1CCN(C(=O)[C@H](N)CCC(=O)O)CC1 [Example 275, (4R)-4-amino-5-[4-[4-[[3-[4-(difluoromethoxy)phenyl]imi-dazo[1,2-a]pyrazin-8-yl]amino]-2-methylbenzoyl]piperazin-1-yl]-5-oxopentanoic acid; hydrochloride] | 3.1
12 | Cc1cc(Nc2nccn3c(-c4ccc(OC(F)F)cc4)cnc23)ccc1C(=O)N1CCN(C(=O)c2cccc(S(=O)(=O)O)c2)CC1 [Example 276, 3-[4-[4-[[3-[4-(difluoromethoxy)phenyl]imi-dazo[1,2-a]pyrazin-8-yl]amino]-2-methylbenzoyl]piperazine-1-carbonyl]benzenesulfonic acid] | 3.3
13 | Cc1cc(Nc2nccn3c(-c4ccc(OC(F)F)cc4)cnc23)ccc1C(=O)N1CCN(C(=O)c2cccc(C(=O)O)c2)CC1 [Example 277, 3-[4-[4-[[3-[4-(difluoromethoxy)phenyl]imi-dazo[1,2-a]pyrazin-8-yl]amino]-2-methylbenzoyl]piperazine-1-carbonyl]benzoic acid] | 3.8
14 | Cc1cc(Nc2nccn3c(-c4ccc(OC(F)F)cc4)cnc23)ccc1C(=O)N1CCN(C(=O)c2ccc(C(=O)O)cc2)CC1 [Example 280, 4-[4-[4-[[3-[4-(difluoromethoxy)phenyl]imi-dazo[1,2-a]pyrazin-8-yl]amino]-2-methylbenzoyl]piperazine-1-carbonyl]benzoic acid] | 4.5
15 | Cc1cc(Nc2nccn3c(-c4ccc(OC(F)F)cc4)cnc23)ccc1C(=O)N1CCN(C(=O)CN(C)CC(=O)O)CC1 [Example 281, 2-[[2-[4-[4-[[3-[4-(difluoromethoxy)phenyl]imi-dazo[1,2-a]pyrazin-8-yl]amino]-2-methylbenzoyl]piperazin-1-yl]-2-oxoethyl]-methylamino]acetic acid] | 4.7
16 | COc1ccc(-c2cnc3c(Nc4ccc(C(=O)N5CCC(C(=O)NCC6(O)CCNC6)CC5)c(C)c4)nccn23)c(F)c1F (stereo not shown) [Example 286, 1-[4-[[3-(2,3-difluoro-4-methoxyphenyl)imidazo[1,2-a]pyrazin-8-yl]amino]-2-methylbenzoyl]-N-[(3-hydroxypyrrolidin-3-yl)methyl]piperidine-4-carboxamide; hydrochloride] | 0.073
17 | COc1ccc(-c2cnc3c(Nc4ccc(C(=O)N5CCC(C(=O)NCC(O)CN)CC5)c(C)c4)nccn23)c(F)c1F (stereo not shown) [Example 291, N-(3-amino-2-hydroxypropyl)-1-[4-[[3-(2,3-difluoro-4-methoxyphenyl)imidazo[1,2-a]pyrazin-8-yl]amino]-2-methylbenzoyl]piperidine-4-carboxamide; hydrochloride] | 0.11
18 | Cc1cc(Nc2nccn3c(-c4ccc(OC(F)F)cc4)cnc23)ccc1C(=O)N1CCC(C(=O)NC[C@H]2CNC(=O)O2)CC1 [Example 298, 1-[4-[[3-[4-(difluoromethoxy)phenyl]imi-dazo[1,2-a]pyrazin-8-yl]amino]-2-methylbenzoyl]-N-[[(5S)-2-oxo-1,3-oxazolidin-5-yl]methyl]piperidine-4-carboxamide] | 0.2
19 | Cc1cc(Nc2nccn3c(-c4ccc(OC(F)F)cc4)cnc23)ccc1C(=O)N1CCC(C(=O)NCC(O)CN)CC1 (stereo not shown) [Example 299, N-(3-amino-2-hydroxypropyl)-1-[4-[[3-[4-(difluoromethoxy)phenyl]imi-dazo[1,2-a]pyrazin-8-yl]amino]-2-methylbenzoyl]piperidine-4-carboxamide; hydrochloride] | 0.2
20 | Cc1cc(Nc2nccn3c(-c4ccc(OC(F)F)cc4)cnc23)ccc1C(=O)N1CCC(N(C)CCN(C)C)CC1 [Example 301, [4-[[3-[4-(difluoromethoxy)phenyl]imi-dazo[1,2-a]pyrazin-8-yl]amino]-2-methylphenyl]-[4-[2-(dimethylamino)ethyl-methylamino]piperidin-1-yl]methanone] | 0.72
21 | Cc1cc(Nc2nccn3c(-c4ccc(OC(F)F)cc4)cnc23)ccc1C(=O)N1CCC(C(=O)NCC2CN(S(C)(=O)=O)C2)CC1 [Example 306, 1-[4-[[3-[4-(difluoromethoxy)phenyl]imi-dazo[1,2-a]pyrazin-8-yl]amino]-2-methylbenzoyl]-N-[(1-methylsulfonylazetidin-3-yl)methyl]piperidine-4-carboxamide] | 0.095
22 | CCc1cc(Nc2nccn3c(-c4ccc(OCC#N)c(F)c4F)cnc23)ccc1C(=O)N1CCC(CCN)CC1 [Example 309, 2-[4-[8-[4-[4-(2-aminoethyl)piperidine-1-carbonyl]-3-ethylanilino]imidazo[1,2-a]pyrazin-3-yl]-2,3-difluorophenoxy]acetonitrile; formic acid] | 0.13
23 | Cc1cc(Nc2nccn3c(-c4ccc(OC(F)F)cc4)cnc23)ccc1C(=O)N1CCC(C(=O)NCC2(F)CNC2)CC1 [Example 310, 1-[4-[[3-[4-(difluoromethoxy)phenyl]imi-dazo[1,2-a]pyrazin-8-yl]amino]-2-methylbenzoyl]-N-[(3-fluoroazetidin-3-yl)methyl]piperidine-4-carboxamide; hydrochloride] | 0.14
24 | CN[C@@H](C)C(=O)N1CCN(C(=O)c2ccc(Nc3nccn4c(-c5ccc(OC(F)F)cc5)cnc34)cc2C)CC1 [Example 311, (2S)-1-[4-[4-[[3-[4-(difluoromethoxy)phenyl]imi-dazo[1,2-a]pyrazin-8-yl]amino]-2-methylbenzoyl]piperazin-1-yl]-2-(methylamino)propan-1-one; hydrochloride] | 0.19
25 | Cc1cc(Nc2nccn3c(-c4ccc(OC(F)F)cc4)cnc23)ccc1C(=O)N1CCN(C(=O)C2CC3(CNC3)C2)CC1 [Example 312, [4-(2-azaspiro[3.3]heptane-6-carbonyl)piperazin-1-yl]-[4-[[3-[4-(difluoromethoxy)phenyl]imi-dazo[1,2-a]pyrazin-8-yl]amino]-2-methylphenyl]methanone; hy-drochloride] | 0.22
